The numbers were not newly measured in US11723919B2, “Composition or combination comprising anionic dietary supplement and 25-hydroxy vitamin D” (Phibro Animal Health Corporation, priority 2020, dated 2023), which cites them from elsewhere.

The structures appear in SMILES notation.

The data set has as its system dairy cows. Conditions: administration pre- or post-calving; Guo et al. 2018.

For `C=C1CC[C@H](O)C/C1=C/C=C1\CCC[C@]2(C)[C@@H]([C@H](C)CCCC(C)(C)O)CC[C@@H]12` [25-hydroxy vitamin D, 25-hydroxy vitamin D3], the “effect on milk yield” value is “no effect”.
